Results from US20260078089A1, “BIOACTIVE PHYTOCHEMICALS IN ZIZYPHUS AND GUARANA” (Phytoquest Limited, priority 2018, published 2026).

Columns and labels:
N1Neu = N1Neu sialidase inhibition screen; format: biochemical; conditions: 2 mM Zanamivir; 1500 ug Zizyphus extract; 10 minute time point
Method: An initial screen of N1Neu inhibition using a variety of compounds and the commercially available sialidase (neuraminidase) inhibitor Zanamivir (which is sold in the pharmaceutical preparation “Relenza™” as a treatment for flu) was performed.
Sialidase assays were performed, reactions contained 0.1 mM MUNANA, pH 7.4 50 mM Tris, 5 mM CaCl2), 200 mM NaCl, plant extract or the control sialidase inhibitor Zanamivir at the concentrations indicated, or no putative inhibitor. N1Neu was present at 0.025 μg/ml in reactions. 50 μl of these reactions were quenched using 100 μl of 100 mM sodium carbonate buffer, pH 10.5, at 5 minutes and 10 minutes. The 10 minute time point was used to assess sialidase activity. Data shown represent the mean of one experiment, where each condition was repeated in triplicate. MU present in quenched reactions was quantified using TECAN M200 Infinite microplate reader at excitation 340 nm emission 430 nm, and expressed as the percentage of sialidase activity (MU fluorescence) relative to the no inhibitor condition.

[1] = system: sialidase of T. forsythia homogenate; assay: Sialidase activity of homogenate of T. forsythia; format: biochemical, Tannerella forsythia; conditions: 2 mM Zanamivir; 1500 μg/ml Zizyphus
Method: (§1) MU release can be used to quantify sialidase activity.
(§2) Whole bacteria or purified sialidases were exposed to MUNANA, in the presence or absence of compound 1 (Example 3) or Zizyphus fruit 50% aqueous ethanol extract containing 1% of the N-methyl-prolines.
(§3) […] Reactions were stopped at 30 seconds and 60 seconds via addition of ph 10.5 60 mM sodium carbonate buffer. Release of fluorogenic MU was quantified by measuring fluorescence emission at 450 nm, excitation 350 nm. Percentage sialidase activity was expressed as the change in fluorescence between 30 seconds and 60 seconds compared to that of a reaction without inhibitor. Reactions were carried out in triplicate.

[2] = system: sialidase of P. gingivalis homogenate; assay: Sialidase activity of homogenate of P. gingivalis; format: biochemical, Porphyromonas gingivalis; conditions: 2 mM Zanamivir; 1500 μg/ml Zizyphus
Method: as §1, §2, §3

## CC(=O)N[C@H]1[C@H]([C@H](O)[C@H](O)CO)OC(C(=O)O)=C[C@@H]1N=C(N)N [Zanamivir]
N1Neu
  % inhibition: 100%
[1]
  % inhibition: 22%
[2]
  % inhibition: 51%
